# The source made the active and inactive calls. No cut-off for these calls is given here.
# Tested on: Bel-7402
# Assay: Antiproliferative activity against human Bel-7402 cells assessed as reduction in cell viability measured after 48 to 72 hrs by MTT assay
# Assay type: functional, cell-based
row,SMILES,IC50 [µM]
1,C[C@H](N[P@](=O)(OC[C@H]1O[C@@H](n2cc(F)c(=O)[nH]c2=O)C[C@@H]1O)Oc1cccc2ccccc12)C(=O)OCc1ccccc1,> 100
2,CC(C)OC(=O)[C@H](C)N[P@](=O)(OC[C@H]1O[C@@H](n2cc(F)c(=O)[nH]c2=O)C[C@@H]1OC(=O)[C@H](CC(=O)OC(C)(C)C)NC(=O)OC(C)(C)C)Oc1ccccc1,3.77

# Continued, values first:
row,IC50 [µM],SMILES
1,7.18,CC(C)OC(=O)[C@H](C)N[P@](=O)(OC[C@H]1O[C@@H](n2cc(F)c(=O)[nH]c2=O)C[C@@H]1OC(=O)[C@H](Cc1ccccc1)NC(=O)OC(C)(C)C)Oc1ccccc1
2,13.2,CC(C)OC(=O)[C@H](C)N[P@](=O)(OC[C@H]1O[C@@H](n2cc(F)c(=O)[nH]c2=O)C[C@@H]1OC(=O)[C@H](Cc1ccccc1)NC(=O)[C@@H](NC(=O)OC(C)(C)C)C(C)C)Oc1ccccc1
3,9.11,CCC(C)[C@H](N)C(=O)O[C@H]1C[C@H](n2cc(F)c(=O)[nH]c2=O)O[C@@H]1CO[P@@](=O)(N[C@@H](C)C(=O)OC(C)C)Oc1ccccc1 (stereo partly drawn)

# Tested on: Bel-7402
# Assay: Antiproliferative activity against human Bel-7402 cells assessed as reduction in cell viability at 20 uM measured after 48 hrs by MTT assay relative to control
# Assay type: functional
row,SMILES,Activity [%]
1,CC(C)OC(=O)[C@H](C)N[P@](=O)(OC[C@H]1O[C@@H](n2cc(F)c(=O)[nH]c2=O)C[C@@H]1OC(=O)[C@H](C)NC(=O)CN)Oc1ccccc1,50
2,C[C@H](N[P@](=O)(OC[C@H]1O[C@@H](n2cc(F)c(=O)[nH]c2=O)C[C@@H]1O)Oc1cccc2ccccc12)C(=O)OCc1ccccc1,<10
3,CC(C)OC(=O)[C@H](C)N[P@](=O)(OC[C@H]1O[C@@H](n2cc(F)c(=O)[nH]c2=O)C[C@@H]1OC(=O)[C@H](Cc1ccccc1)NC(=O)OC(C)(C)C)Oc1ccccc1,>60
4,CC(C)OC(=O)[C@H](C)N[P@](=O)(OC[C@H]1O[C@@H](n2cc(F)c(=O)[nH]c2=O)C[C@@H]1OC(=O)[C@H](CC(=O)OC(C)(C)C)NC(=O)OC(C)(C)C)Oc1ccccc1,>60

# Tested on: Bel-7402
# Assay: Antiproliferative activity against human Bel-7402 cells assessed as reduction in cell viability at 20 uM measured after 48 hrs by MTT assay
# Assay type: functional, cell-based
row,SMILES,Activity
1,CCC(C)[C@H](N)C(=O)O[C@H]1C[C@H](n2cc(F)c(=O)[nH]c2=O)O[C@@H]1CO[P@@](=O)(N[C@@H](C)C(=O)OC(C)C)Oc1ccccc1 (stereo partly drawn),Active

# Tested on: HepG2
# Assay: Antiproliferative activity against human HepG2 cells assessed as reduction in cell viability measured after 48 to 72 hrs by MTT assay
# Assay type: functional, cell-based
row,SMILES,IC50 [µM]
1,C[C@H](N[P@](=O)(OC[C@H]1O[C@@H](n2cc(F)c(=O)[nH]c2=O)C[C@@H]1O)Oc1cccc2ccccc12)C(=O)OCc1ccccc1,> 100
2,CC(C)OC(=O)[C@H](C)N[P@](=O)(OC[C@H]1O[C@@H](n2cc(F)c(=O)[nH]c2=O)C[C@@H]1OC(=O)[C@H](CC(=O)OC(C)(C)C)NC(=O)OC(C)(C)C)Oc1ccccc1,19.9

# Second part, the molecule after the results:
row,IC50 [µM],SMILES
1,28.7,CC(C)OC(=O)[C@H](C)N[P@](=O)(OC[C@H]1O[C@@H](n2cc(F)c(=O)[nH]c2=O)C[C@@H]1OC(=O)[C@H](Cc1ccccc1)NC(=O)OC(C)(C)C)Oc1ccccc1
2,34.1,CC(C)OC(=O)[C@H](C)N[P@](=O)(OC[C@H]1O[C@@H](n2cc(F)c(=O)[nH]c2=O)C[C@@H]1OC(=O)[C@H](Cc1ccccc1)NC(=O)[C@@H](NC(=O)OC(C)(C)C)C(C)C)Oc1ccccc1
3,15.2,CCC(C)[C@H](N)C(=O)O[C@H]1C[C@H](n2cc(F)c(=O)[nH]c2=O)O[C@@H]1CO[P@@](=O)(N[C@@H](C)C(=O)OC(C)C)Oc1ccccc1 (stereo partly drawn)

# Tested on: not listed separately
# Assay: Antiproliferative activity against human L02 cells assessed as reduction in cell viability measured after 48 to 72 hrs by MTT assay
# Assay type: toxicity, cell-based
row,SMILES,IC50 [µM]
1,C[C@H](N[P@](=O)(OC[C@H]1O[C@@H](n2cc(F)c(=O)[nH]c2=O)C[C@@H]1O)Oc1cccc2ccccc12)C(=O)OCc1ccccc1,> 100
2,CC(C)OC(=O)[C@H](C)N[P@](=O)(OC[C@H]1O[C@@H](n2cc(F)c(=O)[nH]c2=O)C[C@@H]1OC(=O)[C@H](Cc1ccccc1)NC(=O)OC(C)(C)C)Oc1ccccc1,> 100
3,CC(C)OC(=O)[C@H](C)N[P@](=O)(OC[C@H]1O[C@@H](n2cc(F)c(=O)[nH]c2=O)C[C@@H]1OC(=O)[C@H](Cc1ccccc1)NC(=O)[C@@H](NC(=O)OC(C)(C)C)C(C)C)Oc1ccccc1,> 100
4,CCC(C)[C@H](N)C(=O)O[C@H]1C[C@H](n2cc(F)c(=O)[nH]c2=O)O[C@@H]1CO[P@@](=O)(N[C@@H](C)C(=O)OC(C)C)Oc1ccccc1 (stereo partly drawn),> 100
5,CC(C)OC(=O)[C@H](C)N[P@](=O)(OC[C@H]1O[C@@H](n2cc(F)c(=O)[nH]c2=O)C[C@@H]1OC(=O)[C@H](CC(=O)OC(C)(C)C)NC(=O)OC(C)(C)C)Oc1ccccc1,> 100

# Tested on: not listed separately
# Assay: Antiproliferative activity against human NCM460 cells assessed as reduction in cell viability measured after 48 to 72 hrs by MTT assay
# Assay type: toxicity, cell-based
row,SMILES,IC50 [µM]
1,C[C@H](N[P@](=O)(OC[C@H]1O[C@@H](n2cc(F)c(=O)[nH]c2=O)C[C@@H]1O)Oc1cccc2ccccc12)C(=O)OCc1ccccc1,> 100
2,CC(C)OC(=O)[C@H](C)N[P@](=O)(OC[C@H]1O[C@@H](n2cc(F)c(=O)[nH]c2=O)C[C@@H]1OC(=O)[C@H](Cc1ccccc1)NC(=O)OC(C)(C)C)Oc1ccccc1,> 100
3,CC(C)OC(=O)[C@H](C)N[P@](=O)(OC[C@H]1O[C@@H](n2cc(F)c(=O)[nH]c2=O)C[C@@H]1OC(=O)[C@H](Cc1ccccc1)NC(=O)[C@@H](NC(=O)OC(C)(C)C)C(C)C)Oc1ccccc1,> 100
4,CCC(C)[C@H](N)C(=O)O[C@H]1C[C@H](n2cc(F)c(=O)[nH]c2=O)O[C@@H]1CO[P@@](=O)(N[C@@H](C)C(=O)OC(C)C)Oc1ccccc1 (stereo partly drawn),> 100
5,CC(C)OC(=O)[C@H](C)N[P@](=O)(OC[C@H]1O[C@@H](n2cc(F)c(=O)[nH]c2=O)C[C@@H]1OC(=O)[C@H](CC(=O)OC(C)(C)C)NC(=O)OC(C)(C)C)Oc1ccccc1,> 100

# Tested on: HepG2
# Assay: Antiproliferative activity against human HepG2 cells assessed as reduction in cell viability at 20 uM measured after 48 hrs by MTT assay relative to control
# Assay type: functional
row,SMILES,Activity [%]
1,CC(C)OC(=O)[C@H](C)N[P@](=O)(OC[C@H]1O[C@@H](n2cc(F)c(=O)[nH]c2=O)C[C@@H]1OC(=O)[C@H](C)NC(=O)CN)Oc1ccccc1,50
2,C[C@H](N[P@](=O)(OC[C@H]1O[C@@H](n2cc(F)c(=O)[nH]c2=O)C[C@@H]1O)Oc1cccc2ccccc12)C(=O)OCc1ccccc1,<10
3,CCC(C)[C@H](N)C(=O)O[C@H]1C[C@H](n2cc(F)c(=O)[nH]c2=O)O[C@@H]1CO[P@@](=O)(N[C@@H](C)C(=O)OC(C)C)Oc1ccccc1 (stereo partly drawn),>50
